Experimental data taken from patent US20250345318A1, “COMPOUND AND USE THEREOF IN PREVENTING OR TREATING RADIATION DAMAGE” (SIMCERE PHARMACEUTICAL CO., LTD., priority 2022, published 2025).

Columns and labels:
[1] = tested on: C57BL/6 male mice; experiment: Therapeutic JAC4 administration, total body X-ray irradiation, small intestine villus length (Example 7); format: in vivo
Procedure: C57BL/6 male mice (24.8±1.6 g in body weight) aged 10 weeks were divided into 4 groups. The mice were subjected to total body X-ray irradiation (6 Gy) before JAC4 (100 mg/kg) or an equal volume of vehicle (polyethylene glycol:ethanol:physiological saline=47.5:7.5:50, v/v/v) was orally administered to the mice once daily for 7 consecutive days. The small intestine tissues were collected for HE staining and inspection, and the small intestine villus length was measured in all groups and statistically analyzed. The specific procedures are as follows: 3 mice were randomly selected from each group for statistical analysis of their small intestine tissue HE staining images, and for each mouse, 6 fields of view were randomly selected for inspection (*** p<0.001).

[2] = tested on: JWA^IEC-ko mice; experiment: X-ray-induced intestinal injury in intestinal epithelial JWA-knockout mice (Example 12); format: in vivo; conditions: JAC4 10 mg/kg daily, ABI 10 Gy
Text: The Model Animal Research Institute of Nanjing University was commissioned to conduct the construction of JWA^flox/+ A129 mice and embryo cryopreservation, preservation, and thawing. These mice were bred with wild-type C57/BL6 mice for over six generations to give mice of C57/BL6 background. Villin-cre mice, provided by Shanghai Model Organisms Center, Inc., were C57/BL6 mice. The JWA-knockout mice (JWA^ko) and their littermate control (JWA^wt) counterparts were derived from an in-house conservation breed. The JWA^flox/flox mice were bred from the JWA^flox/+ mice. The intestinal epithelial JWA-knockout mice (JWA^IEC-ko) and control group (JWA^IEC-wt) were obtained through breeding JWA^flex/flex mice with Villin-cre mice.
The off-target model was established using JWA^IEC-ko mice and their JWA^IEC-wt littermates (8 weeks old), and the mice receiving radiation were divided into 4 groups: (1) a JWA^IEC-wt mice+vehicle group (n=5); (2) a JWA^IEC-wt mice+JAC4 group (n=5); (3) a JWA^IEC-ko mice+vehicle group (n=6); (4) a JWA^IEC-ko mice+JAC4 group (n=5). All mice were subjected to abdominal irradiation at 10 Gy. 7 days before radiation, 10 mg/kg JAC4 or an equal volume of vehicle (polyethylene glycol:ethanol:physiological saline=40:7.5:52.5, v/v/v) was administered intragastrically daily until the end of modeling. The blank control group (wild type, n=6) was not irradiated, and the modeling was terminated on day 4 after radiation.
To verify whether the protective effect of JAC4 on X-ray radiation-induced intestinal damage in mice is dependent on the expression of JWA, the present disclosure verified the targeting effect of JAC4 using JWA^IEC-ko mice.
JWA^IEC-ko and JWA^IEC-wt mice were treated daily with JAC4 (10 mg/kg) or an equal volume of vehicle (polyethylene glycol:ethanol:physiological saline=47.5:7.5:50, v/v/v), respectively, from 7 days before the ABI (10 Gy) exposure to 4 days after the exposure. […] Meanwhile, the contents of TNF-α and IL-1β were consistent with the results of FD4. […] As shown in panels E and F, ABI increased the activity of GSH-Px (530.8±207.8 vs. 406.2±197.9 U/mL) and decreased the activity of CAT (89.4 f 0.4 vs. 68.7±14.2 U/mL). JAC4 further enhanced the antioxidant enzymes in JWA^IEC-wt mice (815.1±203.9 vs. 530.8±207.8 U/mL and 85.9±8.2 vs. 68.7±14.2 U/mL; P<0.05, P<0.05). […] Intestinal tissues were isolated, and the expression of apoptotic molecules was detected by Western blot (FIG. 16J). In wild-type mice, compared with the control group, X-rays increased the expression of Bax and cleaved PARP1 in the small intestine.

[3] = tested on: SPCA-1 cells; experiment: Plate colony formation, SPCA-1 (Example 22); format: cell-based, human
Procedure: The cell proliferation capacity was determined by a plate colony formation experiment, with the following specific procedures.
1. SPCA-1 and BEAS-2B cells (or SPCA-1 and BEAS-2B cells transfected with JWA-knockdown plasmids) in the exponential growth phase were plated in 6-well plates at a specific amount. The number of plated cells is as follows
2. After the cells adhered to the container wall, the cells were treated (or not treated) with […] JAC4 and treated with X-ray of 0, 2, 4, or 6 Gy. The medium was replaced with a fresh medium containing JAC4 at the corresponding concentration once every 2 days (or the cells were treated with X-ray of 0, 2, 4, or 6 Gy after adhesion, and the medium was replaced with a fresh medium once every 2 days).
3. After the cells were cultured for 10-14 days, colonies were visually observed. The culture medium was discarded, and the cells were fixed with methanol for 10-20 min, stained with crystal violet for 10 min, slowly washed with flowing clear water thrice, photographed, and counted for colonies containing>50 cells.
4. The colony forming efficiency (CFE)=(number of colonies formed/number of seeded cells) 100% was calculated, and the cell survival fraction (SF)=(colony forming efficiency of treatment group/colony forming efficiency of 0 Gy group)×100% was calculated from the colony forming efficiency.

## c1ccc(CSc2nnc(C3COc4ccccc4O3)o2)nc1 (stereo not shown) [JAC4]
[1]; TBI 6 Gy, then JAC4 100 mg/kg oral once daily 7 days
  small intestine villus length: 263.11±37.99 μm
[1]; non-radiation, JAC4 100 mg/kg oral 7 days
  small intestine villus length: 306.71±24.22 μm
[2]
  enhancement of antioxidant enzymes (GSH-Px, CAT): not confirmed
  plasma FD4 content: 9192.8 ± 5573.2 ng/mL
  plasma IL-1β: 65.6 ± 3.3 ng/mL
  plasma TNF-α: 769.8 ± 112.3 ng/mL
[2]; day 4
  crypt height: 53.0±3.0 μm
  intestinal villus length: 150.6±8.4 μm
[3]; SPCA-1, 10 μM JAC4 + X-ray vs X-ray monotherapy
  cell survival (radiosensitization curve): significantly reduced
[3]; SPCA-1, JAC4 in combination with X-ray
  number of colonies formed: decreased
